Fc1c(I)c(F)c(I)c(F)c1I
solubility (mole fraction) (in 1,2-dichloroethane, 290.15 K): 2.33e-05 | solubility (mole fraction) (in 1,2-dichloroethane, 295.15 K): 4.22e-05 | solubility (mole fraction) (in 1,2-dichloroethane, 299.15 K): 6.13e-05 | solubility (mole fraction) (in 1,2-dichloroethane, 302.15 K): 8.17e-05 | solubility (mole fraction) (in 1,2-dichloroethane, 305.15 K): 0.000106 | solubility (mole fraction) (in 1,2-dichloroethane, 308.15 K): 0.000131 | solubility (mole fraction) (in 1,2-dichloroethane, 311.15 K): 0.000153 | solubility (mole fraction) (in 1,2-dichloroethane, 314.15 K): 0.000181 | solubility (mole fraction) (in 1,2-dichloroethane, 317.15 K): 0.000207 | solubility (mole fraction) (in 1,2-dichloroethane, 320.15 K): 0.000224 | solubility (mole fraction) (in 1,2-dichloroethane, 325.15 K): 0.000242 | solubility (mole fraction) (in 1,2-dichloroethane, 330.15 K): 0.000263 | solubility (mole fraction) (in 1,4-dioxane, 290.15 K): 0.00028 | solubility (mole fraction) (in 1,4-dioxane, 295.15 K): 0.000334 | solubility (mole fraction) (in 1,4-dioxane, 299.15 K): 0.000387 | solubility (mole fraction) (in 1,4-dioxane, 302.15 K): 0.000413 | solubility (mole fraction) (in 1,4-dioxane, 305.15 K): 0.000456 | solubility (mole fraction) (in 1,4-dioxane, 308.15 K): 0.000506 | solubility (mole fraction) (in 1,4-dioxane, 311.15 K): 0.000553 | solubility (mole fraction) (in 1,4-dioxane, 314.15 K): 0.000593 | solubility (mole fraction) (in 1,4-dioxane, 317.15 K): 0.000641 | solubility (mole fraction) (in 1,4-dioxane, 320.15 K): 0.000697 | solubility (mole fraction) (in 1,4-dioxane, 325.15 K): 0.000773 | solubility (mole fraction) (in 1,4-dioxane, 330.15 K): 0.00088 | solubility (mole fraction) (in THF, 290.25 K): 0.00478 | solubility (mole fraction) (in THF, 295.45 K): 0.00497 | solubility (mole fraction) (in THF, 299.85 K): 0.00511 | solubility (mole fraction) (in THF, 305.15 K): 0.00534 | solubility (mole fraction) (in THF, 310.25 K): 0.00555 | solubility (mole fraction) (in THF, 315.35 K): 0.00578 | solubility (mole fraction) (in THF, 320.15 K): 0.00601 | solubility (mole fraction) (in THF, 326.15 K): 0.0063 | solubility (mole fraction) (in THF, 330.35 K): 0.00648 | solubility (mole fraction) (in acetone, 290.15 K): 2.02e-05 | solubility (mole fraction) (in acetone, 295.15 K): 3.22e-05 | solubility (mole fraction) (in acetone, 299.15 K): 4.55e-05 | solubility (mole fraction) (in acetone, 302.15 K): 5.89e-05 | solubility (mole fraction) (in acetone, 305.15 K): 7.48e-05 | solubility (mole fraction) (in acetone, 308.15 K): 9.01e-05 | solubility (mole fraction) (in acetone, 311.15 K): 0.000107 | solubility (mole fraction) (in acetone, 314.15 K): 0.000127 | solubility (mole fraction) (in acetone, 317.15 K): 0.000144 | solubility (mole fraction) (in acetone, 320.15 K): 0.000162 | solubility (mole fraction) (in acetone, 325.15 K): 0.000182 | solubility (mole fraction) (in acetone, 330.15 K): 0.000202 | solubility (mole fraction) (in acetonitrile, 290.35 K): 0.00382 | solubility (mole fraction) (in acetonitrile, 295.85 K): 0.00415 | solubility (mole fraction) (in acetonitrile, 301.55 K): 0.00469 | solubility (mole fraction) (in acetonitrile, 306.95 K): 0.00536 | solubility (mole fraction) (in acetonitrile, 310.15 K): 0.00568 | solubility (mole fraction) (in acetonitrile, 316.95 K): 0.00636 | solubility (mole fraction) (in acetonitrile, 321.55 K): 0.00722 | solubility (mole fraction) (in acetonitrile, 327.35 K): 0.00842 | solubility (mole fraction) (in acetonitrile, 332.15 K): 0.00917 | solubility (mole fraction) (in ethanol, 290.15 K): 0.00057 | solubility (mole fraction) (in ethanol, 295.15 K): 0.000735 | solubility (mole fraction) (in ethanol, 299.15 K): 0.000874 | solubility (mole fraction) (in ethanol, 302.15 K): 0.000962 | solubility (mole fraction) (in ethanol, 305.15 K): 0.00108 | solubility (mole fraction) (in ethanol, 308.15 K): 0.00119 | solubility (mole fraction) (in ethanol, 311.15 K): 0.00128 | solubility (mole fraction) (in ethanol, 314.15 K): 0.00138 | solubility (mole fraction) (in ethanol, 317.15 K): 0.00149 | solubility (mole fraction) (in ethanol, 320.15 K): 0.0016 | solubility (mole fraction) (in ethanol, 325.15 K): 0.00174 | solubility (mole fraction) (in ethanol, 330.15 K): 0.00193 | solubility (mole fraction) (in ethyl acetate, 290.15 K): 0.000485 | solubility (mole fraction) (in ethyl acetate, 295.15 K): 0.000621 | solubility (mole fraction) (in ethyl acetate, 299.15 K): 0.000756 | solubility (mole fraction) (in ethyl acetate, 302.15 K): 0.00086 | solubility (mole fraction) (in ethyl acetate, 305.15 K): 0.000976 | solubility (mole fraction) (in ethyl acetate, 308.15 K): 0.00107 | solubility (mole fraction) (in ethyl acetate, 311.15 K): 0.00118 | solubility (mole fraction) (in ethyl acetate, 314.15 K): 0.00128 | solubility (mole fraction) (in ethyl acetate, 317.15 K): 0.00136 | solubility (mole fraction) (in ethyl acetate, 320.15 K): 0.00145 | solubility (mole fraction) (in ethyl acetate, 325.15 K): 0.00155 | solubility (mole fraction) (in ethyl acetate, 330.15 K): 0.00167 | solubility (mole fraction) (in isopropanol, 291.25 K): 0.00214 | solubility (mole fraction) (in isopropanol, 296.35 K): 0.00291 | solubility (mole fraction) (in isopropanol, 301.45 K): 0.00369 | solubility (mole fraction) (in isopropanol, 306.45 K): 0.00432 | solubility (mole fraction) (in isopropanol, 311.45 K): 0.00523 | solubility (mole fraction) (in isopropanol, 316.55 K): 0.00598 | solubility (mole fraction) (in isopropanol, 321.45 K): 0.00681 | solubility (mole fraction) (in isopropanol, 326.85 K): 0.00745 | solubility (mole fraction) (in isopropanol, 331.55 K): 0.00802 | solubility (mole fraction) (in methanol, 290.15 K): 2.24e-05 | solubility (mole fraction) (in methanol, 295.15 K): 3.71e-05 | solubility (mole fraction) (in methanol, 299.15 K): 5.15e-05 | solubility (mole fraction) (in methanol, 302.15 K): 6.58e-05 | solubility (mole fraction) (in methanol, 305.15 K): 8.12e-05 | solubility (mole fraction) (in methanol, 308.15 K): 9.61e-05 | solubility (mole fraction) (in methanol, 311.15 K): 0.00011 | solubility (mole fraction) (in methanol, 314.15 K): 0.000121 | solubility (mole fraction) (in methanol, 317.15 K): 0.000131 | solubility (mole fraction) (in methanol, 320.15 K): 0.00014 | solubility (mole fraction) (in methanol, 325.15 K): 0.00015 | solubility (mole fraction) (in methanol, 330.15 K): 0.000154 | solubility (mole fraction) (in n-hexane, 289.25 K): 0.0059 | solubility (mole fraction) (in n-hexane, 293.55 K): 0.00643 | solubility (mole fraction) (in n-hexane, 298.85 K): 0.00732 | solubility (mole fraction) (in n-hexane, 303.85 K): 0.00818 | solubility (mole fraction) (in n-hexane, 308.95 K): 0.00908 | solubility (mole fraction) (in n-hexane, 313.75 K): 0.0101 | solubility (mole fraction) (in n-hexane, 318.55 K): 0.0116 | solubility (mole fraction) (in n-hexane, 324.25 K): 0.0134 | solubility (mole fraction) (in n-hexane, 329.35 K): 0.0149 | solubility (mole fraction) (in n-propanol, 291.25 K): 0.00216 | solubility (mole fraction) (in n-propanol, 296.35 K): 0.00274 | solubility (mole fraction) (in n-propanol, 301.35 K): 0.00325 | solubility (mole fraction) (in n-propanol, 306.35 K): 0.00366 | solubility (mole fraction) (in n-propanol, 311.65 K): 0.00417 | solubility (mole fraction) (in n-propanol, 316.55 K): 0.00482 | solubility (mole fraction) (in n-propanol, 321.55 K): 0.00531 | solubility (mole fraction) (in n-propanol, 326.45 K): 0.00585 | solubility (mole fraction) (in n-propanol, 331.45 K): 0.00643 | solubility (mole fraction) (in toluene, 290.15 K): 0.000169 | solubility (mole fraction) (in toluene, 295.15 K): 0.000217 | solubility (mole fraction) (in toluene, 299.15 K): 0.000261 | solubility (mole fraction) (in toluene, 302.15 K): 0.000294 | solubility (mole fraction) (in toluene, 305.15 K): 0.000329 | solubility (mole fraction) (in toluene, 308.15 K): 0.000368 | solubility (mole fraction) (in toluene, 311.15 K): 0.000404 | solubility (mole fraction) (in toluene, 314.15 K): 0.000444 | solubility (mole fraction) (in toluene, 317.15 K): 0.000479 | solubility (mole fraction) (in toluene, 320.15 K): 0.000515 | solubility (mole fraction) (in toluene, 325.15 K): 0.000573 | solubility (mole fraction) (in toluene, 330.15 K): 0.000623

— BigSolDB 2.1
